Measurements taken from patent US9497966B2, “Pesticidal compositions and related methods” (DOW AGROSCIENCES LLC, priority 2013, dated 2016).

Tests used:
[1] = tested on: Green Peach Aphid (Myzus persicae) (GPA) (MYZUPE); assay: Bioassay for Green Peach Aphid, foliar spray on infested cabbage seedlings; type: in vivo; conditions: 72 h, 200 ppm foliar spray on cabbage, graded after three days, Abbott-corrected % control, read-out: % Control (or Mortality) rating, GPA
Procedure: Example A: Bioassays for Green Peach Aphid (Myzus persicae) (GPA) (MYZUPE)
Cabbage seedlings grown in 3-inch pots, with 2-3 small (3-5 cm) true leaves, were used as test substrate. The seedlings were infested with 20-50 GPA (wingless adult and nymph stages) one day prior to chemical application. Four pots with individual seedlings were used for each treatment. Test compounds (2 mg) were dissolved in 2 mL of acetonemethanol (1:1) solvent, forming stock solutions of 1000 ppm test compound. The stock solutions were diluted 5× with 0.025% Tween 20 in H2O to obtain the solution at 200 ppm test compound. A hand-held aspirator-type sprayer was used for spraying a solution to both sides of […] leaves until runoff. Reference plants (solvent check) were sprayed with the diluent only containing 20% by volume of acetonemethanol (1:1) solvent. Treated plants were held in a holding room for three days at approximately 25° C. and ambient relative humidity (RH) prior to grading. Evaluation was conducted by counting the number of live aphids per plant under a microscope. Percent control was measured by using Abbott's correction formula (W. S. Abbott, “A Method of Computing the Effectiveness of an Insecticide,” J. Econ. Entomol. 18 (1925), pp. 265-267) as follows. Corrected % Control=100*(X−Y)/X • where • X=No. of live aphids on solvent check plants and • Y=No. of live aphids on treated plants The results are indicated in the table entitled “TABLE 2. Biological Data for Green Peach Aphid (MYZUPE) and Sweetpotato Whitefly-crawler (WF) (BEMITA)” (See Table Section).

[2] = tested on: Sweetpotato Whitefly-Crawler (Bemisia tabaci) (WF) (BEMITA); assay: Insecticidal test for Sweetpotato Whitefly-Crawler in foliar spray assay on cotton plants; type: in vivo; conditions: 216 h, 200 ppm foliar spray on cotton, graded after 9 days, Abbott-corrected % control, read-out: % Control (or Mortality) rating, WF
Procedure: Example B: Insecticidal Test for Sweetpotato Whitefly-Crawler (Bemisia tabaci) (WF) (BEMITA) in Foliar Spray Assay
Cotton plants (Gossypium hirsutum) grown in 3-inch pots, with 1 small (4-5 cm) true leaves, were used as test substrate. The plants were infested with 200-400 whitefly eggs 4-5 days prior to chemical application. Four pots with individual plants were used for each treatment. Test compounds (2 mg) were dissolved in 1 mL of acetone solvent, forming stock solutions of 2000 ppm test compound. The stock solutions were diluted 10× with 0.025% Tween 20 in H2O (diluents) to obtain the solution at 200 ppm test compound. A hand-held aspirator-type sprayer was used for spraying a solution to both sides of cotton leaves until runoff. Reference plants (solvent check) were sprayed with the diluent only containing 10% by volume of acetone solvent. Treated plants were held in a holding room for 9 days at approximately 25° C. and ambient relative humidity (RH) prior to grading. Evaluation was conducted by counting the number of live 3-4 nymph stage per plant under a microscope. Percent control was measured by using Abbott's correction formula (W. S. Abbott, “A Method of Computing the Effectiveness of an Insecticide,” J. Econ. Entomol. 18 (1925), pp. 265-267) as follows. Corrected % Control=100*(X−Y)/X • where • X=No. of live nymphs on solvent check plants and • Y=No. of live nymphs on treated plants.
Biological Data for Green Peach Aphid (MYZUPE) and Sweetpotato Whitefly-crawler (WF) (BEMITA)” (See Table Section).

| melting point | SMILES | mortality at 200 ppm [1] | mortality at 200 ppm [2] |
| --- | --- | --- | --- |
| – | CON=C(CSCCC(F)(F)F)C(=O)N(C)c1cn(-c2cccnc2)nc1Cl [Compound P4, N-(3-chloro-1-(pyridin-3-yl)-1H-pyrazol-4-yl)-2-(methoxyimino)-N-methyl-3-((3,3,3-trifluoropropyl)thio)propanamide] | 80 to 100% | 80 to 100% |
| – | CON=C(C[S+]([O-])CCC(F)(F)F)C(=O)N(C)c1cn(-c2cccnc2)nc1Cl (stereo not shown) [Compound P5, N-(3-chloro-1-(pyridin-3-yl)-1H-pyrazol-4-yl)-2-(methoxyimino)-N-methyl-3-((3,3,3-trifluoropropyl)sulfinyl)propanamide] | 80 to 100% | 80 to 100% |
| – | CON=C(CS(=O)(=O)CCC(F)(F)F)C(=O)N(C)c1cn(-c2cccnc2)nc1Cl [Compound P47, N-(3-chloro-1-(pyridin-3-yl)-1H-pyrazol-4-yl)-2-(methoxyimino)-N-methyl-3-((3,3,3-trifluoropropyl)sulfonyl)propanamide] | 80 to 100% | 80 to 100% |
| 116 to 121 °C | CON=C(CS)C(=O)N(C)c1cn(-c2cccnc2)nc1Cl [FA2, N-(3-chloro-1-(pyridin-3-yl)-1H-pyrazol-4-yl)-3-mercapto-2-(methoxyimino)-N-methylpropanamide] | – | – |
